Results as given in US20260034123A1 (Cedilla Therapeutics, Inc., priority 2022, published 2026).

How the values were obtained:
CDK2/Cyclin E1 = CDK2/Cyclin E1 (Homo sapiens, UniProt P24941); test: ADP-Glo Luminescent Kinase Assay (CDK2/E1-37C); type: biochemical; conditions: 0.18 nM CDK2/Cyclin E1, 100 μM ATP, Histone H1, 37° C.; read-out: ADPGLO (CDK2/E1-37C): IC50
Experimental: Inhibition of CDK2/Cyclin E1 activity by the presence of small molecules was evaluated using ADP-Glo Luminescent Kinase Assay (Promega). Activated CDK2/Cyclin E1 was incubated with its substrate Histone H1 (SignalChem H10-54N) in the kinase reaction buffer (100 μM ATP, 50 mM HEPES pH 7.5, 10 mM MgCl2, 1 mM EDTA, 2 mM DTT, 0.01% Brij35, 0.5 mg/mL BSA). Luminescence was recorded with an Envision plate reader (PerkinElmer).
Dose titrations of inhibitors in 100% DMSO were combined with 0.36 nM CDK2/Cyclin E1 in reaction buffer. The mixtures were incubated for 60 minutes at 37° C. before the addition of ATP and Histone H1 substrate to initiate the kinase reaction. The final conditions were 0.18 nM CDK2/Cyclin E1, 100 μM ATP, and […] Histone H1. The reactions were incubated at 37° C. for 90 minutes before being stopped with the addition of ADP-Glo reagent. This mixture was incubated at room temperature for 60 minutes before Kinase Detection Solution is added to generate luminescence. The stopped reactions were analyzed on an Envision plate reader. The conversion ratios were normalized to yield % activity, plotted against compound concentration, and fit to a four-parameter equation to determine the IC50 for each compound.

Kuramochi cells RB-WT = test: IncuCyte Kuramochi cell proliferation assay, RB-WT; type: cell-based; conditions: 72 hours, cell count
Experimental: IncuCyte® assay was used to measure the effect of disclosed compounds on cell proliferation. Fluorescent microscopy images of cells were taken immediately after compound treatment and 72 hours later. Image analysis software was used to obtain cell counts as a function of compound concentration. Kuramochi cells labeled with mApple-H2B were seeded on 384-well assay-ready plates. Plates were placed in an IncuCyte® (Sartorius) and scanned at 0 and 72 hours. IncuCyte® software was used to count the number of fluorescent nuclei in each well. The fold change in cell count from 0 to 72 hours in wells treated with increasing compounds concentrations (10 pts, 1/2 log dilution, 20 µM top concentration) was normalized to DMSO control wells. The normalized cell counts were fit with dose response curves and a GI50 was calculated.

Compound | IC50 (CDK2/Cyclin E1) | IC50 (Kuramochi cells RB-WT)
O=C(NS(=O)(=O)c1cccc(C2CCCCC2)c1)C1CN(C(=O)c2cnn(Cc3ccccc3)c2)CC12CN(C(=O)[C@H]1CC1(F)F)C2 (stereo partly drawn) [Compound I-1, 6-(1-benzyl-1H-pyrazole-4-carbonyl)-N-((3-cyclohexylphenyl)sulfonyl)-2-((R)-2,2-difluorocyclopropane-1-carbonyl)-2,6-diazaspiro[3.4]octane-8-carboxamide] | 5 to 10 µM | > 10 µM
N#Cc1ccc(Cn2cc(C(=O)N3CC(CS(=O)(=O)Cc4cccc(-c5ccc(C(F)(F)F)cc5)n4)C4(C3)CN(C(=O)C3(C(F)(F)F)CC3)C4)cn2)cc1 (stereo not shown) [Compound I-2] | 5 to 10 µM | > 10 µM
O=C(c1cnc(O)cn1)N1CC(CS(=O)(=O)Cc2cccc(-c3ccc(C(F)(F)F)cc3)n2)C2(C1)CN(C(=O)[C@H]1CC1(F)F)C2 (stereo partly drawn) [Compound I-3, (2-((R)-2,2-difluorocyclopropane-1-carbonyl)-8-((((6-(4-(trifluoromethyl)phenyl)pyridin-2-yl)methyl)sulfonyl)methyl)-2,6-diazaspiro[3.4]octan-6-yl)(5-hydroxypyrazin-2-yl)methanone] | > 10 µM | > 10 µM
O=C(O)c1c(COC[C@@H]2CN(C(=O)c3cnn(Cc4ccc(F)cc4)c3)CC23CN(C(=O)C2(C(F)(F)F)CC2)C3)cccc1C1CCC(F)(F)CC1 [Compound I-51, (S)-2-(4,4-difluorocyclohexyl)-6-(((6-(1-(4-fluorobenzyl)-1H-pyrazole-4-carbonyl)-2-(1-(trifluoromethyl)cyclopropanecarbonyl)-2,6-diazaspiro[3.4]octan-8-yl)methoxy)methyl) benzoic acid] | ≤ 0.5 µM | 5 to 10 µM
O=C(O)c1c(COCC2CN(C(=O)c3cnn(Cc4ccc(C(F)(F)F)cc4)c3)CC23CN(C(=O)C2(C(F)(F)F)CC2)C3)cccc1C1CCC(C(F)(F)F)CC1 (stereo not shown) [Compound I-52, 2-(((6-(1-(4-(trifluoromethyl)benzyl)-1H-pyrazole-4-carbonyl)-2-(1-(trifluoromethyl)cyclopropane-1-carbonyl)-2,6-diazaspiro[3.4]octan-8-yl)methoxy)methyl)-6-(4-(trifluoromethyl)cyclohexyl)benzoic acid] | 5 to 10 µM | > 10 µM
O=C(NS(=O)(=O)c1cccc(C2CCOCC2)c1)C1CN(c2cc(F)cc3ncsc23)CC12CN(C(=O)C1(C(F)(F)F)CC1)C2 (stereo not shown) [Compound I-53, 6-(5-fluorobenzo[d]thiazol-7-yl)-N-((3-(tetrahydro-2H-pyran-4-yl)phenyl)sulfonyl)-2-(1-(trifluoromethyl)cyclopropane-1-carbonyl)-2,6-diazaspiro[3.4]octane-8-carboxamide] | > 10 µM | > 10 µM
CC1(C)C[C@@H]1C(=O)N1CC2(CN(C(=O)c3cnn(Cc4ccccc4C(=O)O)c3)C[C@H]2COCc2cccc(C3CCC(C(F)(F)F)CC3)n2)C1 (stereo partly drawn) [Compound I-54, 2-((4-((S)-2-((S)-2,2-dimethylcyclopropane-1-carbonyl)-8-(((6-(4-(trifluoromethyl)cyclohexyl)pyridin-2-yl)methoxy)methyl)-2,6-diazaspiro[3.4]octane-6-carbonyl)-1H-pyrazol-1-yl)methyl)benzoic acid] | ≤ 0.5 µM | > 10 µM
COC(=O)c1c(O)cc(COCC2CN(C(=O)c3cnn(Cc4ccc(C(F)(F)F)cc4)c3)CC23CN(C(=O)C2(C(F)(F)F)CC2)C3)cc1-c1ccc(C(F)(F)F)cc1 (stereo not shown) [Compound I-55, methyl 3-hydroxy-4′-(trifluoromethyl)-5-(((6-(1-(4-(trifluoromethyl)benzyl)-1H-pyrazole-4-carbonyl)-2-(1-(trifluoromethyl)cyclopropane-1-carbonyl)-2,6-diazaspiro[3.4]octan-8-yl)methoxy)methyl)-[1,1′-biphenyl]-2-carboxylate] | > 10 µM | 5 to 10 µM
CC1(C)C[C@@H]1C(=O)N1CC2(CN(C(=O)c3cncs3)CC2COCC(=O)N2CCC(c3ccc(C(=O)O)cc3OC3CCCCC3)CC2)C1 (stereo partly drawn) [Compound I-56, 3-(cyclohexyloxy)-4-(1-(2-((2-((S)-2,2-dimethylcyclopropane-1-carbonyl)-6-(thiazole-5-carbonyl)-2,6-diazaspiro[3.4]octan-8-yl)methoxy)acetyl)piperidin-4-yl)benzoic acid] | 5 to 10 µM | > 10 µM
CC(C)(C)OC(=O)c1c(COCC2CN(c3cc(F)cc4ncsc34)CC23CN(C(=O)C2(C(F)(F)F)CC2)C3)cccc1C1CCC(C(F)(F)F)CC1 (stereo not shown) [Compound I-57, tert-butyl 2-(((6-(5-fluorobenzo[d]thiazol-7-yl)-2-(1-(trifluoromethyl)cyclopropane-1-carbonyl)-2,6-diazaspiro[3.4]octan-8-yl)methoxy)methyl)-6-(4-(trifluoromethyl)cyclohexyl)benzoate] | > 10 µM | > 10 µM
O=C(NS(=O)(=O)c1cccc(C2CCOCC2)c1)[C@@H]1CN(C(=O)c2cnn(Cc3ccc(C(F)(F)F)cc3)c2)CC12CN(C(=O)C1(C(F)(F)F)CC1)C2 [Compound I-58, (S)—N-((3-(tetrahydro-2H-pyran-4-yl)phenyl)sulfonyl)-6-(1-(4-(trifluoromethyl)benzyl)-1H-pyrazole-4-carbonyl)-2-(1-(trifluoromethyl)cyclopropane-1-carbonyl)-2,6-diazaspiro[3.4]octane-8-carboxamide] | > 10 µM | > 10 µM
N#Cc1ccc(Cn2cc(C(=O)N3CC(C(=O)NS(=O)(=O)c4cccc(C5(C(F)(F)F)CC5)c4)C4(C3)CN(C(=O)C3(C(F)(F)F)CC3)C4)cn2)cc1 (stereo not shown) [Compound I-59, 6-(1-(4-cyanobenzyl)-1H-pyrazole-4-carbonyl)-2-(1-(trifluoromethyl)cyclopropane-1-carbonyl)-N-((3-(1-(trifluoromethyl)cyclopropyl)phenyl)sulfonyl)-2,6-diazaspiro[3.4]octane-8-carboxamide] | > 10 µM | > 10 µM
O=C(O)c1ccc(C2CCN(C(=O)COCC3CN(C(=O)c4cnn(Cc5ccccc5)c4)CC34CN(C(=O)C3(C(F)(F)F)CC3)C4)CC2)c(OC2CCCCC2)c1 (stereo not shown) [Compound I-60, 4-(1-(2-((6-(1-benzyl-1H-pyrazole-4-carbonyl)-2-(1-(trifluoromethyl)cyclopropane-1-carbonyl)-2,6-diazaspiro[3.4]octan-8-yl)methoxy)acetyl)piperidin-4-yl)-3-(cyclohexyloxy)benzoic acid] | > 10 µM | > 10 µM
CC(C)(C(=O)N1CC2(CN(C(=O)c3cnn(Cc4ccc(F)cc4)c3)C[C@H]2COCc2ccccc2C(=O)O)C1)C(F)(F)F [I′-11] | > 10 µM | –
CC(C)(C(=O)N1CC2(CN(C(=O)c3cnn(Cc4ccc(F)cc4)c3)C[C@H]2COCc2cccc(C3=CCCC3)c2C(=O)O)C1)C(F)(F)F [I′-12] | ≤ 0.5 µM | –
CC(C)(C(=O)N1CC2(CN(C(=O)c3cnn(Cc4ccc(F)cc4)c3)C[C@H]2COCc2c(F)ccc(C3CCC(F)(F)CC3)c2C(=O)O)C1)C(F)(F)F [I′-13] | ≤ 0.5 µM | –
CC(C)(C(=O)N1CC2(C1)CN(c1cc(F)c(F)c3ncsc13)C[C@H]2COCc1c(F)ccc(C2CCC(F)(F)CC2)c1C(=O)O)C(F)(F)F [I′-14, (S)-2-(((6-(4,5-difluorobenzo[d]thiazol-7-yl)-2-(3,3,3-trifluoro-2,2-dimethylpropanoyl)-2,6-diazaspiro[3.4]octan-8-yl)methoxy)methyl)-6-(4,4-difluorocyclohexyl)-3-fluorobenzoic acid] | ≤ 0.5 µM | –
O=C(O)c1c(COC[C@@H]2CN(C(=O)c3cnn(Cc4ccc(F)cc4)c3)CC23CN(C(=O)C2CCOCC2)C3)cccc1C1CCC(F)(F)CC1 [I′-15] | 0.5 to 5 µM | –
CC(C)C(=O)N1CC2(CN(C(=O)c3cnn(Cc4ccc(F)cc4)c3)C[C@H]2COCc2cccc(C3CCC(F)(F)CC3)c2C(=O)O)C1 [I′-16, (S)-2-(4,4-difluorocyclohexyl)-6-(((6-(1-(4-fluorobenzyl)-1H-pyrazole-4-carbonyl)-2-isobutyryl-2,6-diazaspiro[3.4]octan-8-yl)methoxy)methyl)benzoic acid] | ≤ 0.5 µM | –
O=C(O)c1c(COC[C@@H]2CN(C(=O)c3cnn(Cc4ccc(F)cc4)c3)CC23CN(C(=O)C24CC(C2)C4)C3)cccc1C1CCC(F)(F)CC1 [I′-17, (S)-2-(((2-(bicyclo[11.1.1]pentane-1-carbonyl)-6-(1-(4-fluorobenzyl)-1H-pyrazole-4-carbonyl)-2,6-diazaspiro[3.4]octan-8-yl)methoxy)methyl)-6-(4,4-difluorocyclohexyl)benzoic acid] | ≤ 0.5 µM | –
CN(C)CCNC(=O)c1c(COC[C@@H]2CN(C(=O)c3cnn(Cc4ccc(F)cc4)c3)CC23CN(C(=O)C(C)(C)C(F)(F)F)C3)cccc1C1CCC(F)(F)CC1 [I′-18] | ≤ 0.5 µM | –
